Source: patent publication US20260199351A1, “TRIAZOLE COMPOUNDS, PREPARATION METHODS AND MEDICINAL USES THEREOF” (Jiangsu Hengrui Pharmaceuticals Co., Ltd., priority 2022, published 2026)
pIC50: −log10 of the molar value.

Assays:
[1] = target: T1, WRN helicase (His-WRN527-072) (Homo sapiens, UniProt Q14191); test: WRN Helicase Assay (fluorescent forked DNA); type: biochemical; conditions: 30 min pre-incubation, 60 min reaction at room temperature
T1 construct: in-house produced His-WRN527-072 was used; His (N); made in house
Experimental: To assess the inhibition properties of the invented compounds on WRN helicase activity, a fluorescent assay using forked DNA was set up. In the helicase assay, in-house produced His-WRN527-072 was used. […] 2.5-fold serial dilution of test compounds were prepared for 7 gradient points with DMSO, and then 1.5 μl of each concentration were added to 48.5 μl of assay buffer (25 mM Tris-HCl (pH 8.0), 50 mM NaCl, 2 mM MgCl2, 1 mM DTT, 0.0500 Tween-20, and 2.5 μg/ml BSA) for further dilution. […] Each concentration of the compounds was added as triplicate in the plate. Controls were included in the test to validate the assay. […] Forked DNA and ATP were diluted into 300 nM and 6 mM, respectively, with assay buffer. To initiate the reaction, 5 μl of the dsDNA and ATP solution were added to the assay plate. After 60 minutes room temperature incubation, the plate was transferred to Victor Nivo multimode plate reader (Perkin Elmer, Waltham, MA) and the fluorescence outputs were monitored. GraphPad Prism 9 (GraphPad Software, San Diego, CA) was used to carry out the dose-response curves, deriving IC50s.

SW48 = SW48 cell assay; type: cell-based; conditions: Homo sapiens
WRN ATPase = target: T2, WRN ATPase (Homo sapiens, UniProt Q14191); test: WRN ATPase Assay (ADP-Glo); type: biochemical; conditions: DNA dependent WRN ATPase activity
T2 construct: in-house produced His-WRN527-072 was used; His (N); made in house
Experimental: WRN ATPase Assay To evaluate the inhibition properties of the invented compounds on DNA dependent WRN ATPase activity, an ATPase assay using ADP-Glo assay kit (Promega, Madison, WI) was established. In the ATPase assay, the same WRN protein and DNA substrate as described in helicase assay were used. The serial dilution of the compounds in DMSO was same as helicase assay. […] All the test wells were set as triplicate. Afterwards, 2.5 μl of assay buffer containing 400 nM DNA substrate and 4 mM ATP were added to each well and incubated for 60 minutes. The protein-free control (maximal inhibition) and no-compound control (no inhibition) were included in the test. To stop the reaction and deplete the excessive ATP, 10 μl of the ADP-Glo™ Reagent from the assay kit were added and incubated for 40 minutes. Then, 20 μl of the ATP detection reagent was added. After 30 minutes incubation, the luminescence was measured using Victor Nivo multimode plate reader (Perkin Elmer, Waltham, MA). Dose-response curves, spanning IC50s, were generated by GraphPad Prism 9 (GraphPad Software, San Diego, CA).

T1 sequence (Q14191 527-1072 limits assumed): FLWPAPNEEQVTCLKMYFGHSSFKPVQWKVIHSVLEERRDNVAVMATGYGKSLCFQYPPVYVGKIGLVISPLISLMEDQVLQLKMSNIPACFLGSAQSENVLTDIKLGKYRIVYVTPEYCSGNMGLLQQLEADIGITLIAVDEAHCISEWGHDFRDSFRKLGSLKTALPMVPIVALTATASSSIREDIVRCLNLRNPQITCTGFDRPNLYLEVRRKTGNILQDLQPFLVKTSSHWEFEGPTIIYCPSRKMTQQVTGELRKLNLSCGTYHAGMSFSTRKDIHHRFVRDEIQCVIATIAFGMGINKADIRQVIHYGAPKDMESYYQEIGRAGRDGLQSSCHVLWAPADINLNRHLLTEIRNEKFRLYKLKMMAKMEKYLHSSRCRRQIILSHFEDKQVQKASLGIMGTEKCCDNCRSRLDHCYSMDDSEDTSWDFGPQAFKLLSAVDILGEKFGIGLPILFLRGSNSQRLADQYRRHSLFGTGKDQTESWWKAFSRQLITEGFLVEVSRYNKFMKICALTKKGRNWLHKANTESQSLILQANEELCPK
T2 sequence (Q14191 527-1072 limits assumed): as above

Structure (SMILES) | pIC50 [1] | pIC50 (SW48) | pIC50 (WRN ATPase)
CCc1c(N2CC3CC2CN3C(=O)c2ncnc(C)c2O)c(=O)n2nc(C3=CCOCC3)nc2n1CC(=O)Nc1ccc(C(F)(F)F)cc1Cl (centres unmarked) [Compound 2] | 8.19 | 5.24 | –
CCc1c(N2CC3CCC(C2)N3C(=O)c2ncccc2O)c(=O)n2nc(C3=CCOCC3)nc2n1CC(=O)Nc1ccc(C(F)(F)F)cc1Cl [Compound 4] | 8.35 | 5.87 | –
CCc1c(N2CC3CCC(C2)N3C(=O)c2ncccc2O)c(=O)n2nc(C3=CCOCC3)nc2n1CC(=O)Nc1ccc(Cl)c(C(F)(F)F)c1 [Compound 199] | 8.03 | 5.47 | –
CCc1c(N2CC3CCC(C2)N3C(=O)c2ncccc2O)c(=O)n2nc(C3=CCN(CC(F)F)CC3)nc2n1CC(=O)Nc1ccc(C(F)(F)F)cc1C [Compound 203, 2-(2-(1-(2,2-difluoroethyl)-1,2,3,6-tetrahydropyridin-4-yl)-5-ethyl-6-(8-(3-hydroxypicolinoyl)-3,8-diazabicyclo[3.2.1]octan-3-yl)-7-oxo-[1,2,4]triazolo[1,5-a]pyrimidin-4(7H)-yl)-N-(2-methyl-4-(trifluoromethyl)phenyl)acetamide] | 8.06 | 6.01 | –
CCc1c(N2CC3CC(F)C(C2)N3C(=O)c2ncccc2O)c(=O)n2nc(C3=CCOCC3)nc2n1CC(=O)Nc1ccc(C(F)(F)F)cc1C (centres unmarked) [Compound 205] | 7.96 | 5.63 | –
CCc1c(N2CC3CCC(C2)N3C(=O)c2ncccc2O)c(=O)n2nc(C3=CCC(OC)CC3)nc2n1CC(=O)Nc1ccc(C(F)(F)F)cc1C (centres unmarked) [Compound 202, 2-(5-ethyl-6-(8-(3-hydroxypicolinoyl)-3,8-diazabicyclo[3.2.1]octan-3-yl)-2-(4-methoxycyclohex-1-en-1-yl)-7-oxo-[1,2,4]triazolo[1,5-a]pyrimidin-4(7H)-yl)-N-(2-methyl-4-(trifluoromethyl)phenyl)acetamide] | 8.15 | 5.98 | –
CCc1c(N2CCCN(C(=O)c3ncnc(C)c3O)CC2)c(=O)n2nc(C3=CCOCC3)nc2n1CC(=O)Nc1ccc(C(F)(F)F)cc1Cl [Compound 19] | 8.29 | 6.09 | –
CCc1c(N2C3CCC2CN(C(=O)c2ncccc2O)C3)c(=O)n2nc(-c3cnn(C)c3)nc2n1CC(=O)Nc1ccc(C(F)(F)F)cc1C [Compound 207] | 8.29 | 5.95 | –
CCc1c(N2CCN(C(=O)c3ncnc(C)c3O)CC2)c(=O)n2nc(C3C4COCC43)nc2n1CC(=O)Nc1ccc(C(F)(F)F)cc1Cl (centres unmarked) [Compound 192, 2-(2-(3-oxabicyclo[3.1.0]hexan-6-yl)-5-ethyl-6-(4-(5-hydroxy-6-methylpyrimidine-4-carbonyl)piperazin-1-yl)-7-oxo-[1,2,4]triazolo[1,5-a]pyrimidin-4(7H)-yl)-N-(2-chloro-4-(trifluoromethyl)phenyl)acetamide] | 8.08 | 5.38 | –
CCc1c(N2CC3CCC(C2)N3C(=O)c2ncnc(C)c2O)c(=O)n2nc(C3=CCOCC3)nc2n1CC(=O)Nc1ccc(C(F)(F)F)nc1Cl [Compound 15] | 8.04 | 5.46 | –
CCc1c(C2=CCN(C(=O)c3ncnc(C)c3O)CCC2)c(=O)n2nc(C3CCOCC3)nc2n1CC(=O)Nc1ccc(C(F)(F)F)cc1Cl [Compound 196, N-(2-chloro-4-(trifluoromethyl)phenyl)-2-(5-ethyl-6-(1-(5-hydroxy-6-methylpyrimidine-4-carbonyl)-2,5,6,7-tetrahydro-1H-azepin-4-yl)-7-oxo-2-(tetrahydro-2H-pyran-4-yl)-[1,2,4]triazolo[1,5-a]pyrimidin-4(7H)-yl)acetamide] | 5.89 | – | –
CCc1c(N2CC3CCC(C2)N3C(=O)c2ncccc2O)c(=O)n2nc(C3=CCOCC3)nc2n1CC(=O)Nc1ccc(OC(F)(F)F)cc1 [Compound 200] | 8.36 | 5.14 | –
CCc1c(C2=CCN(C(=O)c3ncnc(C)c3O)CCC2)c(=O)n2nc(C3=CCOCC3)nc2n1CC(=O)Nc1ccc(C(F)(F)F)cc1Cl [Compound 190, N-(2-chloro-4-(trifluoromethyl)phenyl)-2-(2-(3,6-dihydro-2H-pyran-4-yl)-5-ethyl-6-(1-(5-hydroxy-6-methylpyrimidine-4-carbonyl)-2,5,6,7-tetrahydro-1H-azepin-4-yl)-7-oxo-[1,2,4]triazolo[1,5-a]pyrimidin-4(7H)-yl)acetamide] | 8.28 | 5.65 | –
CCc1c(N2CCN(C(=O)c3ncccc3O)CC2)c(=O)n2nc(C3=CCOCC3)nc2n1CC(=O)Nc1ccc(OC(F)(F)F)cc1 [Compound 198] | 8.64 | 6.89 | –
CCc1c(N2C3CCC2CN(C(=O)c2ncnc(C)c2O)C3)c(=O)n2nc(-c3cnn(C)c3)nc2n1CC(=O)Nc1ccc(C(F)(F)F)cc1C [Compound 208] | 8.21 | 6.36 | –
CCc1c(N2C3CCC2CN(C(=O)c2ncccc2O)C3)c(=O)n2nc(C3=CCOCC3)nc2n1CC(=O)Nc1ccc(C(F)(F)F)cc1Cl [Compound 189, N-(2-chloro-4-(trifluoromethyl)phenyl)-2-(2-(3,6-dihydro-2H-pyran-4-yl)-5-ethyl-6-(3-(3-hydroxypicolinoyl)-3,8-diazabicyclo[3.2.1]octan-8-yl)-7-oxo-[1,2,4]triazolo[1,5-a]pyrimidin-4(7H)-yl)acetamide] | 8.34 | 5.96 | –
CCc1c(N2CC3CCC(C2)N3C(=O)c2ncccc2O)c(=O)n2nc(-c3cnn(C)c3)nc2n1CC(=O)Nc1ccc(C(F)(F)F)cc1C [Compound 204] | 8.15 | 5.75 | –
CCc1c(N2CC3CC(C(=O)c4ncnc(C)c4O)C(C2)N3)c(=O)n2nc(C3=CCOCC3)nc2n1CC(=O)Nc1ccc(C(F)(F)F)cc1Cl (centres unmarked) [Compound 186] | 8.57 | 6.15 | 7.89
CCc1c(N2CC3CCC(C2)N3C(=O)c2nccc(Cl)c2O)c(=O)n2nc(C3=CCOCC3)nc2n1CC(=O)Nc1ccc(C(F)(F)F)nc1Cl [Compound 201] | 8.14 | 6.10 | –
CCc1c(N2CC3CC(C2)N3C(=O)c2ncnc(C)c2O)c(=O)n2nc(C3=CCOCC3)nc2n1CC(=O)Nc1ccc(C(F)(F)F)cc1C [Compound 187, 2-(2-(3,6-dihydro-2H-pyran-4-yl)-5-ethyl-6-(6-(5-hydroxy-6-methylpyrimidine-4-carbonyl)-3,6-diazabicyclo[3.1.1]heptan-3-yl)-7-oxo-[1,2,4]triazolo [1,5-a]pyrimidin-4(7H)-yl)-N-(2-methyl-4-(trifluoromethyl)phenyl)acetamide] | 8.07 | 5.35 | –
CCc1c(N2CCC(NC(=O)c3ncnc(C)c3O)C2)c(=O)n2nc(C3=CCOCC3)nc2n1CC(=O)Nc1ccc(C(F)(F)F)cc1C (centres unmarked) [Compound 23] | 8.20 | 5.73 | –
CCc1c(N2C3CC2CN(C(=O)c2ncnc(C)c2O)C3)c(=O)n2nc(C3=CCOCC3)nc2n1CC(=O)Nc1ccc(C(F)(F)F)cc1Cl [Compound 1] | 4.32 | – | –
CCc1c(N2[C@@H]3CC[C@H]2CN(C(=O)c2ncnc(C)c2O)C3)c(=O)n2nc(C3=CCOCC3)nc2n1CC(=O)Nc1ccc(C(F)(F)F)cc1C [Compound 17] | 8.46 | 6.74 | –
CCc1c(N2CCN(C(=O)c3ncnc(C)c3O)CC2)c(=O)n2nc(C3C4CC(OC)CC43)nc2n1CC(=O)Nc1ccc(C(F)(F)F)cc1Cl (centres unmarked) [Compound 191, N-(2-chloro-4-(trifluoromethyl)phenyl)-2-(5-ethyl-6-(4-(5-hydroxy-6-methylpyrimidine-4-carbonyl)piperazin-1-yl)-2-(3-methoxybicyclo[3.1.0]hexan-6-yl)-7-oxo-[1,2,4]triazolo[1,5-a]pyrimidin-4(7H)-yl)acetamide] | 8.43 | – | –
CCc1c(N2CC3CCC(C2)N3C(=O)c2ncccc2O)c(=O)n2nc(C3=CCOCC3)nc2n1CC(=O)Nc1ccc(C(F)(F)F)nc1Cl [Compound 8] | 8.23 | 5.79 | –
CCc1c(N2CCN(C(=O)c3ncccc3O)CC2)c(=O)n2nc(C3=CCOCC3)nc2n1CC(=O)Nc1ccc(Cl)c(C(F)(F)F)c1 [Compound 197] | 8.42 | 7.55 | –
CCc1c(N2CCN(Cc3cccn(C)c3=O)C(=O)C2)c(=O)n2nc(C3=CCOCC3)nc2n1CC(=O)Nc1ccc(C(F)(F)F)cc1C [Compound 68] | 5.30 | – | –
CCc1c(N2C3CCC2CN(C(=O)c2ncccc2O)C3)c(=O)n2nc(C3=CCOCC3)nc2n1CC(=O)Nc1ccc(C(F)(F)F)cc1C [Compound 206] | 8.44 | 5.94 | –
